Measurements: patent US9861612B2 (priority 2014, dated 2018)
Like-named read-outs stand apart in the source and are kept apart here.

Key:
[1] = test system: TH17 cell differentiation (human CD4+CCR6+ T cells); assay: Human Th17 cell differentiation assay (IL-17A ELISA); format: cell-based; settings: 96 h, IL-17A in extracellular media by ELISA, 4 days, mean, read-out: Inhibition of TH17 cell differentiation-Mean IC50
[2] = target: RORγ ligand binding domain (Homo sapiens (Human), UniProt P51449); assay: biochemical; format: biochemical
Sequence of RORγ ligand binding domain (P51449 whole entry, looked up, the tested form may be a part): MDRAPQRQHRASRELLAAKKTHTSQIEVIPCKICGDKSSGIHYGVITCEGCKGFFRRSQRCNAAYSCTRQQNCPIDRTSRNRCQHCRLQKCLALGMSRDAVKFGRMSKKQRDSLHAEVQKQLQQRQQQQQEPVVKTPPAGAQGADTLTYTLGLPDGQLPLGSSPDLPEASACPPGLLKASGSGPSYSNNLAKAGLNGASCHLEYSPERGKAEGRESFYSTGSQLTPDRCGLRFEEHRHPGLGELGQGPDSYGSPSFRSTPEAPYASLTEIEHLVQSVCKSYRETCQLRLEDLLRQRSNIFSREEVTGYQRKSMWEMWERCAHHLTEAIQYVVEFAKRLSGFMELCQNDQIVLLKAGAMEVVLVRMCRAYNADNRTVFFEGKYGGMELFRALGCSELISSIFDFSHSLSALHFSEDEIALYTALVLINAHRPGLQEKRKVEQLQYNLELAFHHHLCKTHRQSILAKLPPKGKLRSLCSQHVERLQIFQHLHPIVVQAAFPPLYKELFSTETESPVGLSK
Description: Various concentrations of test ligands in 0.1 microlitres DMSO were dispensed to assay plates using an Labcyte Echo acoustic dispenser. Two pre-mixes were prepared and incubated for 1 hr at room temp in the dark.

SMILES | IC50 [1] | IC50 ([2]; read-out: RORγ FRET-Mean IC50) | IC50 [2]
O=C(O)c1ccc(-n2cc(C(=O)c3c(Cl)cccc3C(F)(F)F)c3ccccc32)cc1 [Comparator 1, 4-[3-[2-chloro-6-(trifluoromethyl)benzoyl]-1H-indol-1-yl]benzoic acid, reference compound] | 45.3 nM | – | –
O=C(O)c1ccc(-n2cc(C(=O)c3c(F)cccc3C(F)(F)F)c3cccc(F)c32)cc1 [Comparator 2, 4-[7-fluoro-3-[2-fluoro-6-(trifluoromethyl)benzoyl]-1-H-indol-1-yl]benzoic acid, reference compound] | 48.2 nM | 61.9 nM | –
O=C(O)c1ccc(-n2cc(C(=O)c3c(F)cccc3C(F)(F)F)c3cccc(F)c32)c(F)c1 [Comparator 5, 3-fluoro-4-[7-fluoro-3-[2-fluoro-6-(trifluoromethyl)benzoyl]-1H-indol-1-yl]benzoic acid, reference compound] | 47 nM | 111 nM | –
O=C(O)c1ccc(-n2cc(C(=O)c3c(Cl)cccc3C(F)(F)F)c3cccc(F)c32)cc1O [Compound 2, 4-[3-[2-chloro-6-(trifluoromethyl)benzoyl]-7-fluoro-indol-1-yl]-2-hydroxy-benzoic acid] | 12.6 nM | 17.9 nM | –
O=C(O)c1ccc(-n2cc(C(=O)c3c(Cl)cccc3C(F)(F)F)c3cccc(F)c32)c(F)c1 [Compound 3, 4-[3-[2-chloro-6-(trifluoromethyl)benzoyl]-7-fluoro-indol-1-yl]-3-fluoro-benzoic acid] | 15 nM | 37.9 nM | –
O=C(O)c1ccc(-n2cc(C(=O)c3c(Cl)cccc3C3CC3)c3cccc(F)c32)c(F)c1 [Compound 4, 4-[3-(2-chloro-6-cyclopropyl-benzoyl)-7-fluoro-1H-indol-1-yl]-3-fluoro-benzoic acid] | 31.9 nM | – | 42.9 nM
